Laboratory results taken from patent publication US20100041699A1, “MICROCRYSTALLINE (5-FLUORO-2-METHYL-3-QUINOLIN-2-YLMETHYL-INDOL-1-YL) ACETIC ACID” (OXAGEN LIMITED, priority 2005, published 2010).
Blank lines part the entries; values can stand above or below the compound they belong to.

What was measured:
Type in all cases: physicochemical
[1] = Crystal sizes measured by laser diffraction; conditions: for Particle Diameter, 10% particles under given diameter / Particle Diameter, 50% particles under given diameter / Particle Diameter, 90% particles under given diameter: laser diffraction; for Particle Diameter, 10% particles under given diameter: 10% of particles under given diameter; for Particle Diameter, 50% particles under given diameter: 50% of particles under given diameter; for Particle Diameter, 90% particles under given diameter: 90% of particles under given diameter
Method: The sizes of the crystals of one batch of Product A ((5-fluoro-2-methyl-3-quinolin-2-ylmethylindo-1-yl)-acetic acid recrystallised from DMSO/water as described above in Example 1, step 4) and three batches of Product B ((5-fluoro-2-methyl-3-quinolin-2-ylmethylindo-1-yl)-acetic acid recrystallised from DMSO/water and then treated with potassium carbonate and citric acid as described above in Example 1, step 4a) were measured by laser diffraction and compared.

Solubility in solvents = conditions: in most solvents
pKa of the acid = test: pKa of the acid
Source text: The term “weak acid” as used in step (ii) of the method is a term known in the art, and means an acid that partially dissociates in an aqueous solution.

- Particle Diameter, 10% particles under given diameter ([1]; listed as A): 11.93 μm
- Particle Diameter, 10% particles under given diameter ([1]; listed as product A): less than 10 μm
- Particle Diameter, 50% particles under given diameter [1]: 30.13 μm
- Particle Diameter, 90% particles under given diameter ([1]; listed as A): 52.13 μm
Compound: Cc1c(Cc2ccc3ccccc3n2)c2cc(F)ccc2n1CC(=O)O [Product A, (5-fluoro-2-methyl-3-quinolin-2-ylmethylindo-1-yl)-acetic acid]

- diameter of 90% of the crystals ([1]; recrystallised from DMSO/water): 50-70 μm
- solubility (Solubility in solvents): sparingly soluble in most solvents
- pKa (pKa of the acid): 2.8
Compound: Cc1c(Cc2ccc3ccccc3n2)c2cc(F)ccc2n1CC(=O)O [(5-fluoro-2-methyl-3-quinolin-2-ylmethyl-indol-1-yl)-acetic acid]

- Particle Diameter, 10% particles under given diameter ([1]; listed as B (Batch 1)): 0.10 μm
- Particle Diameter, 10% particles under given diameter ([1]; listed as B (Batch 2)): 0.20 μm
- Particle Diameter, 10% particles under given diameter ([1]; listed as B (Batch 3)): 0.11 μm
- Particle Diameter, 50% particles under given diameter ([1]; listed as B (Batch 1)): 0.27 μm
- Particle Diameter, 50% particles under given diameter ([1]; listed as B (Batch 2)): 0.37 μm
- Particle Diameter, 50% particles under given diameter ([1]; listed as B (Batch 3)): 0.31 μm
- Particle Diameter, 90% particles under given diameter ([1]; listed as B (Batch 1)): 0.92 μm
- Particle Diameter, 90% particles under given diameter ([1]; listed as B (Batch 2)): 0.80 μm
- Particle Diameter, 90% particles under given diameter ([1]; listed as B (Batch 3)): 1.53 μm
- Particle Diameter, 90% particles under given diameter ([1]; listed as product B): less than 2 μm
Compound: Cc1c(Cc2ccc3ccccc3n2)c2cc(F)ccc2n1CC(=O)O [Product B, (5-fluoro-2-methyl-3-quinolin-2-ylmethylindo-1-yl)-acetic acid]
